Experimental findings from ChEMBL document CHEMBL5316337, “Critical Role of Position 10 Residue in the Polymyxin Antimicrobial Activity” (J Med Chem, 2023) are described below.

Data set [1] concerns Acinetobacter baumannii. As to the kind of experiment: Antibacterial activity against polymyxin-susceptible Acinetobacter baumannii ATCC 19606 clinical isolates assessed as reduction in bacterial growth by broth microdilution method. The class given is functional.
For data set [2], the system named is Acinetobacter baumannii. As to the kind of experiment: Antibacterial activity against Carbapenem-resistant Acinetobacter baumannii FADD1-AB034 clinical isolates assessed as reduction in bacterial growth by broth microdilution method. Type of data set: functional.
In data set [3] the test system is Klebsiella pneumoniae. As to the kind of experiment: Antibacterial activity against Carbapenem-resistant Klebsiella pneumoniae FADD1-KP032 clinical isolates assessed as reduction in bacterial growth by broth microdilution method. Type of data set: functional. A general note: Broth dilution looks for growth in wells or tubes with falling amounts of substance.
Data set [4] deals with Pseudomonas aeruginosa. As to the kind of experiment: Antibacterial activity against polymyxin-susceptible Pseudomonas aeruginosa FADD1-PA038 clinical isolates assessed as reduction in bacterial growth by broth microdilution method. The class given is functional.
Data set [5] has as its system Pseudomonas aeruginosa. As to the kind of experiment: Antibacterial activity against Carbapenem-resistant Pseudomonas aeruginosa FADD1-PA001 clinical isolates assessed as reduction in bacterial growth by broth microdilution method. The class given is functional.
Data set [6] deals with Klebsiella pneumoniae. As to the kind of experiment: Antibacterial activity against Carbapenem-resistant Klebsiella pneumoniae FADD1-KP065 clinical isolates assessed as reduction in bacterial growth by broth microdilution method. Type of data set: functional.
Data set [7] concerns Enterobacter cloacae. As to the kind of experiment: Antibacterial activity against polymyxin-susceptible Enterobacter cloacae FADD1-EC006 clinical isolates assessed as reduction in bacterial growth by broth microdilution method. Type of data set: functional.
For data set [8], the system named is Acinetobacter baumannii. As to the kind of experiment: Antibacterial activity against polymyxin-susceptible Acinetobacter baumannii ATCC 17978 clinical isolates assessed as reduction in bacterial growth by broth microdilution method. The class given is functional.
The subject of data set [9] is Klebsiella pneumoniae. As to the kind of experiment: Antibacterial activity against Carbapenem-resistant Klebsiella pneumoniae FADD1-KP022 clinical isolates assessed as reduction in bacterial growth by broth microdilution method. Type of data set: functional.
Data set [10] relates to Pseudomonas aeruginosa. As to the kind of experiment: Antibacterial activity against polymyxin-susceptible Pseudomonas aeruginosa FADD1-PA025 clinical isolates assessed as reduction in bacterial growth by broth microdilution method. Type of data set: functional.
Data set [11] concerns Enterobacter cloacae. As to the kind of experiment: Antibacterial activity against polymyxin-susceptible Enterobacter cloacae FADD1-EC003 clinical isolates assessed as reduction in bacterial growth by broth microdilution method. The class given is functional.
Data set [12] relates to Enterobacter cloacae. As to the kind of experiment: Antibacterial activity against polymyxin-susceptible Enterobacter cloacae FADD1-EC001 clinical isolates assessed as reduction in bacterial growth by broth microdilution method. The class given is functional.
The subject of data set [13] is Pseudomonas aeruginosa. As to the kind of experiment: Antibacterial activity against polymyxin-susceptible Pseudomonas aeruginosa ATCC 27853 clinical isolates assessed as reduction in bacterial growth by broth microdilution method. Type of data set: functional.
Data set [14] concerns Acinetobacter baumannii. As to the kind of experiment: Antibacterial activity against Carbapenem-resistant Acinetobacter baumannii FADD1-AB030 clinical isolates assessed as reduction in bacterial growth by broth microdilution method. The class given is functional.
The subject of data set [15] is Pseudomonas aeruginosa. As to the kind of experiment: Antibacterial activity against Carbapenem-resistant Pseudomonas aeruginosa FADD1-PA022 clinical isolates assessed as reduction in bacterial growth by broth microdilution method. The class given is functional.
The subject of data set [16] is Klebsiella pneumoniae. As to the kind of experiment: Antibacterial activity against Carbapenem-resistant Klebsiella pneumoniae BM1 clinical isolates assessed as reduction in bacterial growth by broth microdilution method. Type of data set: functional.
The subject of data set [17] is Klebsiella pneumoniae. As to the kind of experiment: Antibacterial activity against polymyxin-susceptible Klebsiella pneumoniae ATCC 700721 clinical isolates assessed as reduction in bacterial growth by broth microdilution method. Type of data set: functional.
Data set [18] can be described thus: Acute toxicity in Swiss mouse assessed as maximum tolerated dose administered intravenously measured over 24 hrs. Conditions: in vivo, route iv.

Converted amounts (≈) assume the structure as drawn. Bridge positions count the residues as written; N and C are the ends. Square brackets hold non-standard residues; d marks the D form. Peptide text beside a SMILES is read from it. * marks the point of attachment. X1 = CC[C@H](C)CCCCC(=O)*; Dab = NCC[C@H](N)C(=O)O

Turning to `CC[C@H](C)CCCCC(=O)N[C@@H](CCN)C(=O)N[C@H](C(=O)N[C@@H](CCN)C(=O)N[C@H]1CCNC(=O)[C@H](CCCNC(=N)N)NC(=O)[C@H](CCN)NC(=O)[C@H](CCN)NC(=O)[C@H](CC(C)C)NC(=O)[C@@H](Cc2ccccc2)NC(=O)[C@H](CCN)NC1=O)[C@@H](C)O`, the MIC is 8 µg/mL (≈ 6.36 µM) in the data set with Acinetobacter baumannii [1]; 4 µg/mL (≈ 3.18 µM) in the data set with Acinetobacter baumannii [2]; 32 µg/mL (≈ 25.4 µM) with Klebsiella pneumoniae [3]; more than 32 µg/mL in the data set with Pseudomonas aeruginosa [4]; more than 32 µg/mL with Pseudomonas aeruginosa [5]; 4 µg/mL (≈ 3.18 µM) with Klebsiella pneumoniae [6]. The MIC is 32 µg/mL (≈ 25.4 µM) in the data set on Enterobacter cloacae [7]; 4 µg/mL (≈ 3.18 µM) with Acinetobacter baumannii [8]; 2 µg/mL (≈ 1.59 µM) in the data set with Klebsiella pneumoniae [9]; 8 µg/mL (≈ 6.36 µM) with Pseudomonas aeruginosa [10]; 16 µg/mL (≈ 12.7 µM) in the data set with Enterobacter cloacae [11]; 32 µg/mL (≈ 25.4 µM) with Enterobacter cloacae [12]. In addition, the MIC with Pseudomonas aeruginosa [13] is 4 µg/mL (≈ 3.18 µM); in the data set with Acinetobacter baumannii [14] it was 8 µg/mL (≈ 6.36 µM); in the data set on Pseudomonas aeruginosa [15], 1 µg/mL (≈ 0.795 µM); with Klebsiella pneumoniae [16] it was more than 32 µg/mL; in the data set with Klebsiella pneumoniae [17] it was 32 µg/mL (≈ 25.4 µM).
Turning to `CC[C@H](C)CCCCC(=O)N[C@@H](CCN)C(=O)N[C@H](C(=O)N[C@@H](CCN)C(=O)N[C@H]1CCNC(=O)[C@H](CCCN)NC(=O)[C@H](CCN)NC(=O)[C@H](CCN)NC(=O)[C@H](CC(C)C)NC(=O)[C@@H](Cc2ccccc2)NC(=O)[C@H](CCN)NC1=O)[C@@H](C)O`, the minimum inhibitory concentration (MIC) in the data set on Acinetobacter baumannii [1] was 16 µg/mL (≈ 13.2 µM); with Acinetobacter baumannii [2], 8 µg/mL (≈ 6.58 µM); in the data set on Klebsiella pneumoniae [3], 32 µg/mL (≈ 26.3 µM); with Pseudomonas aeruginosa [4] it was more than 32 µg/mL; with Pseudomonas aeruginosa [5] it was more than 32 µg/mL; with Klebsiella pneumoniae [6], 4 µg/mL (≈ 3.29 µM). In addition, the MIC in the data set with Enterobacter cloacae [7] was more than 32 µg/mL; in the data set with Acinetobacter baumannii [8], 4 µg/mL (≈ 3.29 µM); in the data set with Klebsiella pneumoniae [9], 4 µg/mL (≈ 3.29 µM); with Pseudomonas aeruginosa [10] it was more than 32 µg/mL; in the data set with Enterobacter cloacae [11], 32 µg/mL (≈ 26.3 µM); with Enterobacter cloacae [12] it was 32 µg/mL (≈ 26.3 µM). For the same compound, the MIC in the data set with Pseudomonas aeruginosa [13] was more than 32 µg/mL; with Acinetobacter baumannii [14], 16 µg/mL (≈ 13.2 µM); in the data set with Pseudomonas aeruginosa [15] it was more than 32 µg/mL; in the data set with Klebsiella pneumoniae [16], more than 32 µg/mL; in the data set with Klebsiella pneumoniae [17], 32 µg/mL (≈ 26.3 µM).
`CC[C@H](C)CCCCC(=O)N[C@@H](CCN)C(=O)N[C@H](C(=O)N[C@@H](CCN)C(=O)N[C@H]1CCNC(=O)[C@H](CO)NC(=O)[C@H](CCN)NC(=O)[C@H](CCN)NC(=O)[C@H](CC(C)C)NC(=O)[C@@H](Cc2ccccc2)NC(=O)[C@H](CCN)NC1=O)[C@@H](C)O`: the MIC stood at 2 µg/mL (≈ 1.68 µM) in the data set with Acinetobacter baumannii [1]; 1 µg/mL (≈ 0.841 µM) in the data set on Acinetobacter baumannii [2]; 0.25 µg/mL (≈ 0.21 µM) with Klebsiella pneumoniae [3]; 1 µg/mL (≈ 0.841 µM) in the data set with Pseudomonas aeruginosa [4]; 0.5 µg/mL (≈ 0.42 µM) in the data set with Pseudomonas aeruginosa [5]; 0.25 µg/mL (≈ 0.21 µM) with Klebsiella pneumoniae [6]. Also, the MIC in the data set on Enterobacter cloacae [7] was 0.5 µg/mL (≈ 0.42 µM); with Acinetobacter baumannii [8] it was 1 µg/mL (≈ 0.841 µM); in the data set with Klebsiella pneumoniae [9] it was less than 0.125 µg/mL; in the data set on Pseudomonas aeruginosa [10], 2 µg/mL (≈ 1.68 µM); with Enterobacter cloacae [11] it was 0.25 µg/mL (≈ 0.21 µM); in the data set with Enterobacter cloacae [12], 0.5 µg/mL (≈ 0.42 µM). For the same compound, the MIC came out at 0.5 µg/mL (≈ 0.42 µM) in the data set on Pseudomonas aeruginosa [13]; 1 µg/mL (≈ 0.841 µM) in the data set with Acinetobacter baumannii [14]; 0.5 µg/mL (≈ 0.42 µM) with Pseudomonas aeruginosa [15]; 0.25 µg/mL (≈ 0.21 µM) in the data set on Klebsiella pneumoniae [16]; 0.5 µg/mL (≈ 0.42 µM) in the data set on Klebsiella pneumoniae [17]. For the same compound, the MTD at 24 h in data set [18] was found to be 4.1 mg/kg.
In the case of `CC[C@H](C)CCCCC(=O)N[C@@H](CCN)C(=O)N[C@H](C(=O)N[C@@H](CCN)C(=O)N[C@H]1CCNC(=O)[C@H](Cc2c[nH]cn2)NC(=O)[C@H](CCN)NC(=O)[C@H](CCN)NC(=O)[C@H](CC(C)C)NC(=O)[C@@H](Cc2ccccc2)NC(=O)[C@H](CCN)NC1=O)[C@@H](C)O`, the MIC worked out at 16 µg/mL (≈ 12.9 µM) in the data set on Acinetobacter baumannii [1]; 16 µg/mL (≈ 12.9 µM) in the data set on Acinetobacter baumannii [2]; 16 µg/mL (≈ 12.9 µM) in the data set on Klebsiella pneumoniae [3]; 16 µg/mL (≈ 12.9 µM) in the data set with Pseudomonas aeruginosa [4]; 32 µg/mL (≈ 25.8 µM) in the data set on Pseudomonas aeruginosa [5]; 16 µg/mL (≈ 12.9 µM) in the data set on Klebsiella pneumoniae [6]. Further, the MIC in the data set with Enterobacter cloacae [7] is more than 32 µg/mL; in the data set on Acinetobacter baumannii [8], 4 µg/mL (≈ 3.23 µM); with Klebsiella pneumoniae [9], 8 µg/mL (≈ 6.45 µM); in the data set on Pseudomonas aeruginosa [10], 8 µg/mL (≈ 6.45 µM); with Enterobacter cloacae [11] it was 16 µg/mL (≈ 12.9 µM); with Enterobacter cloacae [12], 32 µg/mL (≈ 25.8 µM). In addition, the MIC in the data set on Pseudomonas aeruginosa [13] was 8 µg/mL (≈ 6.45 µM); in the data set on Acinetobacter baumannii [14], more than 32 µg/mL; with Pseudomonas aeruginosa [15], 1 µg/mL (≈ 0.807 µM); in the data set with Klebsiella pneumoniae [16] it was more than 32 µg/mL; in the data set on Klebsiella pneumoniae [17] it was 32 µg/mL (≈ 25.8 µM).
As for `CC[C@H](C)CCCCC(=O)N[C@@H](CCN)C(=O)N[C@H](C(=O)N[C@@H](CCN)C(=O)N[C@H]1CCNC(=O)[C@H](CC(C)C)NC(=O)[C@H](CCN)NC(=O)[C@H](CCN)NC(=O)[C@H](CC(C)C)NC(=O)[C@@H](Cc2ccccc2)NC(=O)[C@H](CCN)NC1=O)[C@@H](C)O` (X1-[Dab]T[Dab][Dab][Dab][dF]L[Dab][Dab]L; lactam 4-C), the MIC was 16 µg/mL (≈ 13.2 µM) in the data set on Acinetobacter baumannii [1]; 8 µg/mL (≈ 6.58 µM) with Acinetobacter baumannii [2]; 4 µg/mL (≈ 3.29 µM) in the data set on Klebsiella pneumoniae [3]; 2 µg/mL (≈ 1.65 µM) in the data set on Pseudomonas aeruginosa [4]; 1 µg/mL (≈ 0.823 µM) with Pseudomonas aeruginosa [5]; 0.5 µg/mL (≈ 0.411 µM) with Klebsiella pneumoniae [6]. In addition, the MIC was 4 µg/mL (≈ 3.29 µM) in the data set on Enterobacter cloacae [7]; 2 µg/mL (≈ 1.65 µM) in the data set with Acinetobacter baumannii [8]; 0.25 µg/mL (≈ 0.206 µM) with Klebsiella pneumoniae [9]; 2 µg/mL (≈ 1.65 µM) in the data set on Pseudomonas aeruginosa [10]; 4 µg/mL (≈ 3.29 µM) with Enterobacter cloacae [11]; 2 µg/mL (≈ 1.65 µM) in the data set with Enterobacter cloacae [12]. Also, the MIC in the data set with Pseudomonas aeruginosa [13] was determined as 2 µg/mL (≈ 1.65 µM); in the data set on Acinetobacter baumannii [14] it was 1 µg/mL (≈ 0.823 µM); in the data set with Pseudomonas aeruginosa [15] it was 1 µg/mL (≈ 0.823 µM); in the data set with Klebsiella pneumoniae [16] it was 2 µg/mL (≈ 1.65 µM); in the data set with Klebsiella pneumoniae [17], 4 µg/mL (≈ 3.29 µM). The maximum tolerated dose (MTD) at 24 h in [18] was 6.1 mg/kg.

In general, MIC refers to the lowest concentration found to suppress growth. The term MTD denotes the highest dose tested that stayed within the study's limit of toxicity.
